pIC50: −log10 of the molar value.
Columns and labels:
[1] = biological target: IL-17A(FLAG-Tagged): IL-17RA(His-Tagged) binding (Homo sapiens, UniProt Q16552, K93Q); experiment: IL-17A(FLAG-tagged):IL-17RA(His-tagged) binding disruption Eu-HTRF assay, Protocol 2; settings: FLAG-IL-17A 1 nM; average if tested more than once
From the text: IL-17A(FLAG-Tagged): IL-17RA(His-Tagged) Binding Disruption Eu-HTRF Assay
An antibody directed against the FLAG tag of IL-17A (SEQ ID NO: 1) is labeled with the HTRF donor chromophore (Europium-cryptate). IL-17A is present as a dimer that is “locked into” this quaternary structure due to the formation of loop-spanning […] disulfide bridges. The construct of IL-17RA used in the assay excludes the […] portion of the receptor and is fused to a C-terminal 10×His tag (SEQ ID NO:2). An antibody directed against the His tag of the IL-17RA chimera is labeled with the HTRF acceptor chromophore (“D2”). The fluorescence-resonance energy transfer (FRET) depends on the vicinity of the donor chromophore to the acceptor, and interruption of the binding between the IL-17A and IL-17RA causes the reduction/loss of FRET. Therefore, this assay allows to evaluate the compound effect on the binding IL-17A and IL-17RA by monitoring the fluorescence intensity of donor vs acceptor. The assay was run using either Protocol 1 or Protocol 2 as described below.
Protocol 2. 40 nl of 2-fold serial diluted compound solution for total 22 dilution points is added into each well of a 1536-well, white, low-volume, non-binding plate (Greiner #782904), then 2 μl of FLAG tagged IL-17A at 2×final concentration (1 nM) in solution of PBS+0.01% Triton-X100 is added to each well. The assay plate is briefly centrifuged then incubated for 1 h at rt. A mixed solution is prepared containing 2×5 nM 10HIS×IL-17RA, 2×2.5 nM Eu-anti-FLAG (CISBIO), 2×5 nM D2-anti-HIS (CISBIO) in PBS+0.01% Triton-X100+200 mM Potassium Fluoride (Sigma 60238) and 2 μl of mix is added to each well of the assay plate. The plate is briefly centrifuged then incubated for 2 h at rt. The HTRF intensities at the wavelength of donor (615 nm) and acceptor (665 nm) are measured using BMG Pherastar. The ratio between intensities at two wavelengths is calculated and plotted against the compound concentration and the data is fitted to a one-site competition model to yield IC50 of the compound.

[2] = test system: IL-17A-induced G-CSF production in human normal keratinocyte (NHK); experiment: NHK assay: IL-17A-induced G-CSF production in normal human keratinocytes; assay type: cell-based; settings: Homo sapiens, Keratinocyte, 24 h, IL-17A 5 ng/mL, G-CSF by HTRF, average if tested more than once
Summary of the method: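 Stimulus rhIL-17A 5 ng/mL final, premixed 1 h rt with compound; adult NHK, 5% FBS, 0.2% DMSO. Viability by CellTiter-Glo vs DMSO.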

Sequence of UniProt Q16552 (Q16552 with tags, fused parts or gaps K93Q): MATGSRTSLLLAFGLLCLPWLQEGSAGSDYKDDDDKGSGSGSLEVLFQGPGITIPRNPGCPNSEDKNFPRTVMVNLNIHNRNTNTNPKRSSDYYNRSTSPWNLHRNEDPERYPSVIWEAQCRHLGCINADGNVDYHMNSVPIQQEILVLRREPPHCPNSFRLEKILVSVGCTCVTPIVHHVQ

Row | pIC50 [1] | Structure (SMILES) | pIC50 [2]
1 | > 7.30 | [2H]C1([2H])NC(=O)N([C@H](COC)c2cnn3cc([C@H](CCC(C)(C)C(F)(F)F)NC(=O)c4nonc4OC)nc3c2)C([2H])([2H])C1(F)F [Example 73, N—((S)-1-(7-((S)-1-(5,5-Difluoro-2-oxotetrahydropyrimidin-1(2H)-yl-4,4,6,6-d4)-2-methoxyethyl)imidazo[1,2-b]pyridazin-2-yl)-5,5,5-trifluoro-4,4-dimethylpentyl)-4-methoxy-1,2,5-oxadiazole-3-carboxamide] | > 7.30
2 | > 7.30 | [2H]C1([2H])NC(=O)N([C@H](COC)c2cnn3cc([C@H](CCC(C)(C)C(F)(F)F)NC(=O)c4nonc4C)nc3c2)C([2H])([2H])C1(F)F [Example 74, N—((S)-1-(7-((S)-1-(5,5-Difluoro-2-oxotetrahydropyrimidin-1(2H)-yl-4,4,6,6-d4)-2-methoxyethyl)imidazo[1,2-b]pyridazin-2-yl)-5,5,5-trifluoro-4,4-dimethylpentyl)-4-methyl-1,2,5-oxadiazole-3-carboxamide] | > 7.30
3 | > 7.30 | [2H]C1([2H])NC(=O)N([C@H](COC2CC2)c2cnn3cc([C@H](CCC(C)(C)C(F)(F)F)NC(=O)c4nonc4C)nc3c2)C([2H])([2H])C1(F)F [Example 76, N—((S)-1-(7-((S)-2-Cyclopropoxy-1-(5,5-difluoro-2-oxotetrahydropyrimidin-1(2H)-yl-4,4,6,6-d4)ethyl)imidazo[1,2-b]pyridazin-2-yl)-5,5,5-trifluoro-4,4-dimethylpentyl)-4-methyl-1,2,5-oxadiazole-3-carboxamide] | > 7.30
4 | > 7.30 | [2H]C1([2H])NC(=O)N([C@H](COC)c2cnn3cc([C@H](CCC(C)(C)C(F)(F)F)NC(=O)c4nonc4C4CC4)nc3c2)C([2H])([2H])C1(F)F [Example 80, 4-Cyclopropyl-N—((S)-1-(7-((S)-1-(5,5-difluoro-2-oxotetrahydropyrimidin-1(2H)-yl-4,4,6,6-d4)-2-methoxyethyl)imidazo[1,2-b]pyridazin-2-yl)-5,5,5-trifluoro-4,4-dimethylpentyl)-1,2,5-oxadiazole-3-carboxamide] | > 7.30
5 | > 7.30 | [2H]C1([2H])NC(=O)N([C@H](COC)c2cnn3cc([C@H](CCC(C)(C)C(F)(F)F)NC(=O)c4nonc4C(F)F)nc3c2)C([2H])([2H])C1(F)F [Example 81, N—((S)-1-(7-((S)-1-(5,5-Difluoro-2-oxotetrahydropyrimidin-1(2H)-yl-4,4,6,6-d4)-2-methoxyethyl)imidazo[1,2-b]pyridazin-2-yl)-5,5,5-trifluoro-4,4-dimethylpentyl)-4-(difluoromethyl)-1,2,5-oxadiazole-3-carboxamide] | > 7.30

Further lines, the compound ahead of its results:

Row | Structure (SMILES) | pIC50 [1] | pIC50 [2]
6 | COC[C@H](c1cnn2cc(C(NC(=O)c3nonc3C)C3C[C@H]4CC[C@H]4C3)nc2c1)N1CC(F)(F)CNC1=O (single isomer, unassigned) [Example 132, N-((1S*)-((1R,5S)-Bicyclo[3.2.0]heptan-3-yl)(7-((S)-1-(5,5-difluoro-2-oxotetrahydropyrimidin-1(2H)-yl)-2-methoxyethyl)imidazo[1,2-b]pyridazin-2-yl)methyl)-4-methyl-1,2,5-oxadiazole-3-carboxamide] | > 7.30 | > 7.30
7 | Cc1nonc1C(=O)N[C@@H](CCC(C)(C)C(F)(F)F)c1cn2ncc([C@@H](COC3CC3)N3CC(F)(F)CNC3=O)cc2n1 [Example 56, N—((S)-1-(7-((S)-2-Cyclopropoxy-1-(5,5-difluoro-2-oxotetrahydropyrimidin-1(2H)-yl)ethyl)imidazo[1,2-b]pyridazin-2-yl)-5,5,5-trifluoro-4,4-dimethylpentyl)-4-methyl-1,2,5-oxadiazole-3-carboxamide] | > 7.30 | > 7.30
8 | [2H]C1([2H])NC(=O)N([C@H](COC2CC2)c2cnn3cc([C@@H](NC(=O)c4nonc4OC)C4CCC(F)(F)CC4)nc3c2)C([2H])([2H])C1(F)F [Example 69, N—((S)-(7-((S)-2-Cyclopropoxy-1-(5,5-difluoro-2-oxotetrahydropyrimidin-1(2H)-yl-4,4,6,6-d4)ethyl)imidazo[1,2-b]pyridazin-2-yl)(4,4-difluorocyclohexyl)methyl)-4-methoxy-1,2,5-oxadiazole-3-carboxamide] | > 7.30 | > 7.30
9 | [2H]C1([2H])NC(=O)N([C@H](COC2CC2)c2cnn3cc([C@@H](NC(=O)c4nonc4CC)C4CCC(F)(F)CC4)nc3c2)C([2H])([2H])C1(F)F [Example 70, N—((S)-(7-((S)-2-Cyclopropoxy-1-(5,5-difluoro-2-oxotetrahydropyrimidin-1(2H)-yl-4,4,6,6-d4)ethyl)imidazo[1,2-b]pyridazin-2-yl)(4,4-difluorocyclohexyl)methyl)-4-ethyl-1,2,5-oxadiazole-3-carboxamide] | > 7.30 | > 7.30
10 | [2H]C1([2H])NC(=O)N([C@H](COC2CC2)c2cnn3cc([C@@H](NC(=O)c4ccnn4C(C)C)C4CCC(F)(F)CC4)nc3c2)C([2H])([2H])C1(F)F [Example 71, N—((S)-(7-((S)-2-Cyclopropoxy-1-(5,5-difluoro-2-oxotetrahydropyrimidin-1(2H)-yl-4,4,6,6-d4)ethyl)imidazo[1,2-b]pyridazin-2-yl)(4,4-difluorocyclohexyl)methyl)-1-isopropyl-1H-pyrazole-5-carboxamide] | > 7.30 | > 7.30
11 | [2H]C1([2H])NC(=O)N([C@H](COC)c2cnn3cc([C@@H](NC(=O)c4nonc4C4CC4)C4CCC(F)(F)CC4)nc3c2)C([2H])([2H])C1(F)F [Example 72, 4-Cyclopropyl-N—((S)-(7-((S)-1-(5,5-difluoro-2-oxotetrahydropyrimidin-1(2H)-yl-4,4,6,6-d4)-2-methoxyethyl)imidazo[1,2-b]pyridazin-2-yl)(4,4-difluorocyclohexyl)methyl)-1,2,5-oxadiazole-3-carboxamide] | > 7.30 | > 7.30
12 | [2H]C1([2H])NC(=O)N([C@H](COC2CC2)c2cnn3cc([C@H](CCC(C)(C)C(F)(F)F)NC(=O)c4nonc4OC)nc3c2)C([2H])([2H])C1(F)F [Example 75, N—((S)-1-(7-((S)-2-Cyclopropoxy-1-(5,5-difluoro-2-oxotetrahydropyrimidin-1(2H)-yl-4,4,6,6-d4)ethyl)imidazo[1,2-b]pyridazin-2-yl)-5,5,5-trifluoro-4,4-dimethylpentyl)-4-methoxy-1,2,5-oxadiazole-3-carboxamide] | > 7.30 | > 7.30
13 | COc1nonc1C(=O)N[C@H](c1cn2ncc([C@@H](COC3CC3)N3CC(F)(F)CNC3=O)cc2n1)C1CCC(F)(F)CC1 [Example 77, N—((S)-(7-((S)-2-Cyclopropoxy-1-(5,5-difluoro-2-oxotetrahydropyrimidin-1(2H)-yl)ethyl)imidazo[1,2-b]pyridazin-2-yl)(4,4-difluorocyclohexyl)methyl)-4-methoxy-1,2,5-oxadiazole-3-carboxamide] | > 7.30 | > 7.30
14 | O=C(N[C@H](c1cn2ncc([C@@H](COC3CC3)N3CC(F)(F)CNC3=O)cc2n1)C1CCC(F)(F)CC1)c1nonc1C(F)F [Example 78, N—((S)-(7-((S)-2-Cyclopropoxy-1-(5,5-difluoro-2-oxotetrahydropyrimidin-1(2H)-yl)ethyl)imidazo[1,2-b]pyridazin-2-yl)(4,4-difluorocyclohexyl)methyl)-4-(difluoromethyl)-1,2,5-oxadiazole-3-carboxamide] | > 7.30 | > 7.30
15 | COC[C@H](c1cnn2cc([C@@H](NC(=O)c3nonc3C(F)F)C3CCC(F)(F)CC3)nc2c1)N1CC(F)(F)CNC1=O [Example 79, N—((S)-(7-((S)-1-(5,5-Difluoro-2-oxotetrahydropyrimidin-1(2H)-yl)-2-methoxyethyl)imidazo[1,2-b]pyridazin-2-yl)(4,4-difluorocyclohexyl)methyl)-4-(difluoromethyl)-1,2,5-oxadiazole-3-carboxamide] | > 7.30 | > 7.30
